Source: patent US7491825B2, “Basic non-peptide bradykinin antagonists and pharmaceutical compositions therefrom” (Menarini Ricerche S.p.A., priority 2002, dated 2009)
Where a name gives a salt, the structure may show the parent alone.

These molecules were tested against T1, human B2 receptor (Homo sapiens, UniProt P30411) (assay: binding to the human B2 receptor expressed in human fibroblasts W138). Conditions: not given.
T1 construct: human B2 receptor expressed in human fibroblasts W138; endogenous in cells; host or cells: human fibroblasts W138 (WI-38)
T1 sequence (P30411 1-391): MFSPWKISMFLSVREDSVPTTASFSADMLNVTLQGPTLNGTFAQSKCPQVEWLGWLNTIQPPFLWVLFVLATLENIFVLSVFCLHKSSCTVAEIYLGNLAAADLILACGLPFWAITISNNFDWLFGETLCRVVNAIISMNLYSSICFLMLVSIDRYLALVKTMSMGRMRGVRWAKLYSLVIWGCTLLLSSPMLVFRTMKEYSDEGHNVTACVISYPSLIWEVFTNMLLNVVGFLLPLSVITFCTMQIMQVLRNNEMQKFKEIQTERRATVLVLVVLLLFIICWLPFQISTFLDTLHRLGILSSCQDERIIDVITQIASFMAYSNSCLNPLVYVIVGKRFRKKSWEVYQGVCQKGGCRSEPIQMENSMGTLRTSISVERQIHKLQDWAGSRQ
Description: In the following the binding values are reported expressed as pKi.

Row | Molecule | Ki
1 | Cc1ccc2cccc(OCc3c(Cl)ccc(S(=O)(=O)NC(C)(C)C(=O)N4CCN(C(=N)N)CC4)c3Cl)c2n1 [Example 20, 4-{2-[2,4-Dichloro-3-(2-methyl-quinolin-8-yloxymethyl)-benzenesulfonylamino]-2-methyl-propionyl}-piperazine-1-carboxamidine] | 0.631 nM
2 | Cc1ccc2cccc(OCc3c(Cl)ccc(S(=O)(=O)NC(C)(C)C(=O)N4CCN(C(=O)CC5CCNCC5)CC4)c3Cl)c2n1 [Example 25, N-{2-[4-2-(Piperidin-4-yl-acetyl)-piperazin-1-yl]-1,1-dimethyl-2-oxo-ethyl}-2,4-dichloro-3-(2-methyl-8-quinolinoxymethyl)-benzenesulfonamide bis trifluoroacetate] | 0.537 nM
3 | Cc1ccc2cccc(OCc3c(Cl)ccc(S(=O)(=O)NC(C)(C)C(=O)N4CCN(C(=N)NCCCN)CC4)c3Cl)c2n1 [Example 31, N-(3-Amino-propyl)-4-{2-[2,4-dichloro-3-(2-methyl-quinolin-8-yloxymethyl)-benzenesulfonylamino]-2-methyl-propionyl}-piperazine-1-carboxamidine tris trifluoroacetate] | 0.398 nM
4 | Cc1cc(C)c2cccc(OCc3c(Cl)ccc(S(=O)(=O)NC4(C(=O)N5CCC(N6CCN(C(=O)[C@@H](N)CCCNC(=N)N)CC6)CC5)CCCC4)c3Cl)c2n1 [Example 38] | 0.501 nM
5 | CCN=C(NCC)NCCC[C@H](N)C(=O)N1CCN(C(=O)C(C)(C)NS(=O)(=O)c2ccc(Cl)c(COc3cccc4ccc(C)nc34)c2Cl)CC1 [Example 41] | 0.501 nM
6 | CCN=C(NCC)NCCCC[C@H](N)C(=O)N1CCN(C(=O)C2(NS(=O)(=O)c3ccc(Cl)c(COc4cccc5c(C)cc(C)nc45)c3Cl)CCCC2)CC1 [Example 43, (2S)—N-(1-{4-[2-Amino-6-(N′,N″-diethyl-guanidino)-hexanoyl]-piperazine-1-carbonyl}-cyclopentyl)-2,4-dichloro-3-(2,4-dimethyl-quinolin-8-yloxymethyl)-benzenesulfonamide] | 0.398 nM
7 | CCN=C(NCC)NCCC[C@H](N)C(=O)N1CCN(C(=O)C2(NS(=O)(=O)c3ccc(Cl)c(COc4cccc5c(C)cc(C)nc45)c3Cl)CCCC2)CC1 [Example 44] | 0.0794 nM
8 | Cc1cc(C)c2cccc(OCc3c(Cl)ccc(S(=O)(=O)NC(C)(C)C(=O)N4CCN(C(=O)[C@@H](N)CCCNC(=N)N)CC4)c3Cl)c2n1 [Example 48, N-[2-[4-(2-(S)-Amino-5-guanidino-pentanoyl)-piperazin-1-yl]-1,1-dimethyl-2-oxo-ethyl]-2,4-dichloro-3-(2,4-dimethyl-quinolin-8-yloxymethyl)-benzenesulfonamide] | 0.631 nM
9 | Cc1ccc2cccc(OCc3c(Cl)ccc(S(=O)(=O)NC(C)(C)C(=O)N4CCN(C(=O)[C@H](N)CCCNC(=N)N)CC4)c3Cl)c2n1 [Example 51, N-[2-[4-(2-(R)-Amino-5-guanidino-pentanoyl)-piperazin-1-yl]-1,1-dimethyl-2-oxo-ethyl]-2,4-dichloro-3-(2-methyl-quinolin-8-yloxymethyl)-benzenesulfonamide] | 0.398 nM
10 | Cc1cc(C)c2cccc(OCc3c(Cl)ccc(S(=O)(=O)NC4(C(=O)N5CCN(C(=O)[C@H](N)CCCCNC(=N)N)CC5)CCCC4)c3Cl)c2n1 [Example 64, N-[1-[4-(2-(R)-Amino-6-guanidino-hexanoyl)-piperazine-1-carbonyl]-cyclopentyl]-2,4-dichloro-3-(2,4-dimethyl-quinolin-8-yloxymethyl)-benzenesulfonamide tris trifluoroacetate] | 0.631 nM
11 | CC[C@@](C)(NS(=O)(=O)c1ccc(Cl)c(COc2cccc3c(C)cc(C)nc23)c1Cl)C(=O)N1CCN(C(=O)C[C@@H](N)CCCNC(=N)N)CC1 [Example 70, (R)—N-[4-(3-(S)-Amino-6-guanidino-hexanoyl)-piperazine-1-carbonyl]-1-methyl-propyl]-2,4-dichloro-3-(2,4-dimethyl-quinolin-8-yloxymethyl)-benzenesulfonamide tris trifluoroacetate] | 0.631 nM

Same assay, conditions: human B2 receptor expressed in human fibroblasts W138

Row | Molecule | pKi
12 | 2,4-Dichloro-3-(2-methyl-quinolin-8-yloxymethyl)-benzenesulfinic acid (2-{4-[2-R-amino-5-(N′,N″-diethyl-guanidino)-pentanoyl]-piperazin-1-yl}-1,1-dimethyl-2-oxo-ethyl)-amide [Example 42] | 9.4
13 | 2,4-Dichloro-3-(2-methyl-quinolin-8-yloxymethyl)-benzenesulfinic acid {2-[4-(2-guanidino-ethyl)-piperazin-1-yl]-1,1-dimethyl-2-oxo-ethyl}-amide [Example 40] | 9.7
14 | Cc1cc(C)c2cccc(OCc3c(Cl)ccc(S(=O)(=O)NC(C)(C)C(=O)N4CCN(C(=O)[C@@H](N)CCCCN(C)C)CC4)c3Cl)c2n1 [Example 45, N-[2-[4-(2-(S)-Amino-6-dimethylamino-hexanoyl)-piperazin-1-yl]-1,1-dimethyl-2-oxo-ethyl]-2,4-dichloro-3-(2,4-dimethyl-quinolin-8-yloxymethyl)-benzenesulfonamide] | 9.2
15 | Cc1cc(C)c2cccc(OCc3c(Cl)ccc(S(=O)(=O)N[C@H](C)C(C)C(=O)N4CCN(C(=O)CN5CCN(CCNC(=N)N)CC5)CC4)c3Cl)c2n1.O=C(O)C(F)(F)F.O=C(O)C(F)(F)F.O=C(O)C(F)(F)F.O=C(O)C(F)(F)F (stereo partly shown) [Example 71] | 9.4
16 | Cc1cc(C)c2cccc(OCc3c(Cl)ccc(S(=O)(=O)N[C@H](C)C(C)C(=O)N4CCN(C(=O)C[C@H](CCCNC(=N)N)NC(=N)N)CC4)c3Cl)c2n1.O=C(O)C(F)(F)F.O=C(O)C(F)(F)F.O=C(O)C(F)(F)F (stereo partly shown) [Example 73] | 9.2
17 | Cc1cc(C)c2cccc(OCc3c(Cl)ccc(S(=O)(=O)NC4(C(=O)N5CCN(C(=O)[C@@H](N)CCCC[N+](C)(C)C)CC5)CCCC4)c3Cl)c2n1 [Example 79, N-{1-[4-(2-(S)-Amino-6-trimethylammonium-hexanoyl)-piperazine-1-carbonyl]-cyclopentyl}-2,4-dichloro-3-(2,4-dimethyl-quinolin-8-yloxymethyl)-benzenesulfonamide tris trifluoroacetate] | 9.2

Same assay, conditions: human B2 receptor expressed in human fibroblasts W138; read-out: pKi (converted)

Row | Molecule | Ki
18 | Cc1ccc2cccc(OCc3c(Cl)ccc(S(=O)(=O)NC(C)(C)C(=O)N4CCN(C(=O)CNC5CCNCC5)CC4)c3Cl)c2n1 [Example 26, N-{2-[4-[N-(4-Piperidyl)glycyl]-piperazin-1-yl]-1,1-dimethyl-2-oxo-ethyl}-2,4-dichloro-3-(2-methyl-8-quinolinoxymethyl)-benzenesulfonamide tris trifluoroacetate] | 0.501 nM
19 | Cc1ccc2cccc(OCc3c(Cl)ccc(S(=O)(=O)NC(C)(C)C(=O)N4CCN(C(=O)C[C@@H](N)CCCN(C)C)CC4)c3Cl)c2n1 [Example 29, N-{2-[4-(3-(S)-Amino-6-dimethylamino-hexanoyl)-piperazin-1-yl]-1,1-dimethyl-2-oxo-ethyl}-2,4-dichloro-3-(2-methyl-8-quinolinoxymethyl)-benzenesulfonamide tris trifluoroacetate] | 0.631 nM
20 | Cc1ccc2cccc(OCc3c(Cl)ccc(S(=O)(=O)NC(C)(C)C(=O)N4CCN(C(=O)C[C@@H](N)CCCCN(C)C)CC4)c3Cl)c2n1 [Example 30, N-{2-[4-(3-(S)-Amino-7-dimethylamino-heptanoyl)-piperazin-1-yl]-1,1-dimethyl-2-oxo-ethyl}-2,4-dichloro-3-(2-methyl-8-quinolinoxymethyl)-benzenesulfonamide tris trifluoroacetate] | 0.794 nM
21 | Cc1cc(C)c2cccc(OCc3c(Cl)ccc(S(=O)(=O)NC(C)(C)C(=O)N4CCN(C(=O)C[C@@H](N)CCCN(C)C)CC4)c3Cl)c2n1 [Example 46, N-[2-[4-(3-(S)-Amino-6-dimethylamino-hexanoyl)-piperazin-1-yl]-1,1-dimethyl-2-oxo-ethyl]-2,4-dichloro-3-(2,4-dimethyl-quinolin-8-yloxymethyl)-benzenesulfonamide] | 0.501 nM
22 | CC[C@@](C)(NS(=O)(=O)c1ccc(Cl)c(COc2cccc3c(C)cc(C)nc23)c1Cl)C(=O)N1CCN(C(=O)[C@@H](N)CCCCN(C)C)CC1 [Example 61, (R)—N-[1-[4-(2-(S)-Amino-6-dimethylamino-hexanoyl)-piperazine-1-carbonyl]-1-methyl-propyl]-2,4-dichloro-3-(2,4-dimethyl-quinolin-8-yloxymethyl)-benzenesulfonamide tris trifluoroacetate] | 0.501 nM
23 | Cc1cc(C)c2cccc(OCc3c(Cl)ccc(S(=O)(=O)NC4(C(=O)N5CCN(C(=O)CCCCCNC(=N)N)CC5)CCCC4)c3Cl)c2n1 [Example 67, N-[1-[4-(6-Guanidino-hexanoyl)-piperazine-1-carbonyl]-cyclopentyl]-2,4-dichloro-3-(2,4-dimethyl-quinolin-8-yloxymethyl)-benzenesulfonamide bis trifluoroacetate] | 0.794 nM
24 | CC[C@@](C)(NS(=O)(=O)c1ccc(Cl)c(COc2cccc3c(C)cc(C)nc23)c1Cl)C(=O)N1CCN(C(=O)C[C@@H](N)CCCN)CC1 [Example 72, (R)—N-[4-(3-(S)-Amino-6-amino-hexanoyl)-piperazine-1-carbonyl]-1-methyl-propyl]-2,4-dichloro-3-(2,4-dimethyl-quinolin-8-yloxymethyl)-benzenesulfonamide tris trifluoroacetate] | 0.398 nM
25 | CC[C@@](C)(NS(=O)(=O)c1ccc(Cl)c(COc2cccc3c(C)cc(C)nc23)c1Cl)C(=O)N1CCN(C(=O)C[C@@H](N)CCCN(C)C)CC1 [Example 74, (R)—N-[4-(3-(S)-Amino-6-dimethylamino-hexanoyl)-piperazine-1-carbonyl]-1-methyl-propyl]-2,4-dichloro-3-(2,4-dimethyl-quinolin-8-yloxymethyl)-benzenesulfonamide tris trifluoroacetate] | 0.794 nM
